# Tested on: locally advanced or metastatic ER+HER2−BC
# Test: Tumor response and progression-free survival, phase 1 dose escalation
# Format: in vivo, human
# Excerpt: Example 3 reports Clinical and Genomics Analysis of a single trial. The Study Population in Example 3 was as follows: • Women ≥18 years old with locally advanced or metastatic ER+HER2−BC. • Progression on at least one hormonal therapy and at least one additional therapy/regimen; no maximum number of prior lines of therapy. • ECOG performance status of 0 or 1. • Adequate bone marrow and organ function. • Excluded if had bone-only disease or inflammatory BC.
# Methods were used to analyze whether H3B-6545 inactivates both wild-type and mutant ERα by targeting cysteine 530 and enforcing a unique antagonist conformation. Methods: Women with locally advanced or metastatic HR+BC are treated (tx) with H3B-6545 drug product administered once daily orally by capsule over a 28 day cycle after progression on at least one hormonal therapy and at least one additional therapy/regimen. Dose escalation uses a 3+3 design with the option to backfill previously cleared doses and allows for intrapatient dose escalation. This example explored the safety, pharmacokinetics and pharmacodynamics of H3B-6545 in women with HR+BC to identify a recommended subsequent dose for testing.
# • H3B-6545 administered once daily orally over a 28 day cycle. • Dose escalation using a standard 3+3 study design using dose cohorts of 100, 200, 300, 450, and 600 mg QD. • Patients allowed to backfill previously cleared doses. • Intra-patient dose escalation allowed after completion of Cycle 3. Results (as of Apr. 20, 2019) Patient Population: • 46 patients were treated with H3B-6545 at doses of 100 to 600 mg QD. • 42 (91.3%) patients received a prior CDK4/6 inhibitor and 32 (69.6%) prior fulvestrant. • 30 (65.2%) patients received ≥3 prior anti-cancer therapy lines in the advanced/metastatic setting.
# [1] = Total (N = 46), 100 to 600 mg QD
# [2] = as of Apr. 20, 2019, 46 patients, 100 to 600 mg QD
structure (smiles),measurement,setting,value
"CN(C)C(=O)/C=C/CNCCOc1ccc(/C(=C(/CC(F)(F)F)c2ccccc2)c2ccc3[nH]nc(F)c3c2)cn1 [H3B-6545, (E)-N,N-dimethyl-4-[2-[5-[(Z)-4,4,4-trifluoro-1-(3-fluoro-1H-indazol-5-yl)-2-phenylbut-1-enyl]pyridin-2-yl]oxyethylamino]but-2-enamide]",Best Overall Response: Complete Response (CR),100 mg QD (N = 6),0 (0.0) n (%)
same,Best Overall Response: Not Evaluable (NE),100 mg QD (N = 6),0 (0.0) n (%)
same,Best Overall Response: Partial Response (PR),100 mg QD (N = 6),1 (16.7) n (%)
same,Best Overall Response: Progressive Disease (PD),100 mg QD (N = 6),0 (0.0) n (%)
same,Best Overall Response: Unknown (UNK),100 mg QD (N = 6),0 (0.0) n (%)
same,Objective Responses (CR + PR),100 mg QD (N = 6),1 (16.7) n(%)
same,"Progressive-Free Survival, Median (95% CI)",100 mg QD (N = 6),"9.3 (7.4, NE) months"
same,"Progressive-Free Survival, Q1 (95% CI)",100 mg QD (N = 6),"7.5 (7.4, 11.0) months"
same,Best Overall Response: Complete Response (CR),200 mg QD (N = 12),0 (0.0) n (%)
same,Best Overall Response: Not Evaluable (NE),200 mg QD (N = 12),4 (33.3) n (%)
same,Best Overall Response: Partial Response (PR),200 mg QD (N = 12),1 (8.3) n (%)
same,Best Overall Response: Progressive Disease (PD),200 mg QD (N = 12),2 (16.7) n (%)
same,Best Overall Response: Unknown (UNK),200 mg QD (N = 12),1 (8.3) n (%)
same,Objective Responses (CR + PR),200 mg QD (N = 12),1 (8.3) n(%)
same,"Progressive-Free Survival, Median (95% CI)",200 mg QD (N = 12),"5.5 (0.9, NE) months"
same,"Progressive-Free Survival, Q1 (95% CI)",200 mg QD (N = 12),"1.5 (0.9, 5.5) months"
same,Best Overall Response: Complete Response (CR),300 mg QD (N = 11),0 (0.0) n (%)
same,Best Overall Response: Not Evaluable (NE),300 mg QD (N = 11),3 (27.3) n (%)
same,Best Overall Response: Partial Response (PR),300 mg QD (N = 11),0 (0.0) n (%)
same,Best Overall Response: Progressive Disease (PD),300 mg QD (N = 11),5 (45.5) n (%)
same,Best Overall Response: Unknown (UNK),300 mg QD (N = 11),0 (0.0) n (%)
same,Objective Responses (CR + PR),300 mg QD (N = 11),0 (0.0) n(%)
same,"Progressive-Free Survival, Median (95% CI)",300 mg QD (N = 11),"1.8 (1.6, 5.4) months"
same,"Progressive-Free Survival, Q1 (95% CI)",300 mg QD (N = 11),"1.8 (1.6, 1.8) months"
same,"Progressive-Free Survival, Q3 (95% CI)",300 mg QD (N = 11),"5.4 (1.8, NE) months"
same,Best Overall Response: Complete Response (CR),450 mg QD (N = 10),0 (0.0) n (%)
same,Best Overall Response: Not Evaluable (NE),450 mg QD (N = 10),3 (30.0) n (%)
same,Best Overall Response: Partial Response (PR),450 mg QD (N = 10),1 (10.0) n (%)
same,Best Overall Response: Progressive Disease (PD),450 mg QD (N = 10),3 (30.0) n (%)
same,Best Overall Response: Unknown (UNK),450 mg QD (N = 10),0 (0.0) n (%)
same,Objective Responses (CR + PR),450 mg QD (N = 10),1 (10.0) n(%)
same,"Progressive-Free Survival, Median (95% CI)",450 mg QD (N = 10),"7.2 (1.8, 7.3) months"
same,"Progressive-Free Survival, Q1 (95% CI)",450 mg QD (N = 10),"1.9 (1.8, 7.2) months"
same,"Progressive-Free Survival, Q3 (95% CI)",450 mg QD (N = 10),"7.3 (2.1, 7.5) months"
same,Best Overall Response: Complete Response (CR),600 mg QD (N = 7),0 (0.0) n (%)
same,Best Overall Response: Not Evaluable (NE),600 mg QD (N = 7),4 (57.1) n (%)
same,Best Overall Response: Partial Response (PR),600 mg QD (N = 7),0 (0.0) n (%)
same,Best Overall Response: Progressive Disease (PD),600 mg QD (N = 7),1 (14.3) n (%)
same,Best Overall Response: Unknown (UNK),600 mg QD (N = 7),0 (0.0) n (%)
same,Objective Responses (CR + PR),600 mg QD (N = 7),0 (0.0) n(%)
same,Best Overall Response: Complete Response (CR),[1],0 (0.0) n (%)
same,Best Overall Response: Not Evaluable (NE),[1],14 (30.4) n (%)
same,Best Overall Response: Partial Response (PR),[1],3 (6.5) n (%)
same,Best Overall Response: Progressive Disease (PD),[1],11 (23.9) n (%)
same,Best Overall Response: Unknown (UNK),[1],1 (2.2) n (%)
same,Objective Responses (CR + PR),[1],3 (6.5) n(%)
same,"Progressive-Free Survival, Median (95% CI)",[1],"7.2 (1.9, 7.4) months"
same,"Progressive-Free Survival, Q1 (95% CI)",[1],"1.8 (1.6, 2.1) months"
same,"Progressive-Free Survival, Q3 (95% CI)",[1],"7.5 (7.3, NE) months"
same,"Stable disease, patients","as of 10 Dec. 2018, 32 patients, 100 to 450 mg/day",15 patients
same,"At least 6 months of therapy completed, % of patients",[2],30.4%
same,"At least 6 months of therapy completed, patients",[2],14 patients
same,"Confirmed partial response, % of patients",[2],6.5%
same,"Confirmed partial response, patients",[2],3 patients
same,"Stable disease, % of patients",[2],37.0%
same,"Stable disease, patients",[2],17 patients
same,mPFS,"heavily pre-treated, post CDK4/6i setting, 46 patients",7.2 months
same,response of case study patient,"patient case study, 450 mg QD, after 4 cycles",partial response
same,decrease in the sum of the diameters of all target lesions,"patient case study, 450 mg QD, baseline to C3D1",−27.8%
same,decrease in the sum of the diameters of all target lesions,"patient case study, 450 mg QD, baseline to C7D1",−35.6%

# — patent US12702660B2, “Method for treating cancer with an oral dosage form of an estrogen receptor-alpha inhibitor” (Eisai R&D Management Co., Ltd., priority 2019, dated 2026)
